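Growth conditions: 96-well plates. Treatment: test compound, 48 hours, 5 concentrations. Analysis: linear interpolation between bracketing concentrations; unreached endpoints set to highest concentration. GI50: concentration for 50% inhibition of growth. At the TGI there is no net growth.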
Key:
Experiment in all cases: NCI-60 cell line screen, 48 h
[1] = tested on: 786-0 renal
[2] = tested on: A498 renal
[3] = tested on: A549 NSCLC
[4] = tested on: ACHN renal
[5] = tested on: BT-549 breast
[6] = tested on: CAKI-1 renal
[7] = tested on: CCRF-CEM leukemia
[8] = tested on: COLO 205 colon
[9] = tested on: DU-145 prostate
[10] = tested on: EKVX NSCLC
[11] = tested on: HCC-2998 colon
[12] = tested on: HCT-116 colon
[13] = tested on: HCT-15 colon
[14] = tested on: HL-60(TB) leukemia
[15] = tested on: HOP-62 NSCLC
[16] = tested on: HOP-92 NSCLC
[17] = tested on: HS 578T breast
[18] = tested on: HT29 colon
[19] = tested on: IGROV1 ovarian
[20] = tested on: K-562 leukemia
[21] = tested on: KM12 colon
[22] = tested on: LOX IMVI melanoma
[23] = tested on: M14 melanoma
[24] = tested on: MALME-3M melanoma
[25] = tested on: MCF7 breast
[26] = tested on: MDA-MB-231 breast
[27] = tested on: MDA-MB-435
[28] = tested on: MDA-MB-468 breast
[29] = tested on: NCI-H226 lung
[30] = tested on: NCI-H23 lung
[31] = tested on: NCI-H460 lung
[32] = tested on: NCI-H522 lung
[33] = tested on: NCI/ADR-RES ovarian
[34] = tested on: OVCAR-3 ovarian
[35] = tested on: OVCAR-4 ovarian
[36] = tested on: OVCAR-5 ovarian
[37] = tested on: OVCAR-8 ovarian
[38] = tested on: PC-3 prostate
[39] = tested on: RPMI-8226 leukemia
[40] = tested on: RXF 393 renal
[41] = tested on: SF-268 CNS
[42] = tested on: SF-295 CNS
[43] = tested on: SF-539 CNS
[44] = tested on: SK-MEL-2 melanoma
[45] = tested on: SK-MEL-28 melanoma
[46] = tested on: SK-MEL-5 melanoma
[47] = tested on: SK-OV-3 ovarian
[48] = tested on: SN12C renal
[49] = tested on: SNB-19 CNS
[50] = tested on: SNB-75 CNS
[51] = tested on: SR leukemia
[52] = tested on: SW-620 colon
[53] = tested on: T-47D breast
[54] = tested on: TK-10 renal
[55] = tested on: U251 CNS
[56] = tested on: UACC-257 melanoma
[57] = tested on: UACC-62 melanoma
[58] = tested on: UO-31 renal

SMILES: N#Cc1c(NC(=O)c2ccc(C(O)(C(F)(F)F)C(F)(F)F)cc2)sc2c1CCC(=O)C2
- GI50 [1]: 1130 nM
- TGI [1]: 2890 nM
- GI50 [2]: 12200 nM
- TGI [2]: 26500 nM
- GI50 [3]: 2750 nM
- TGI [3]: 12600 nM
- GI50 [4]: 346 nM
- TGI [4]: 1350 nM
- GI50 [5]: 422 nM
- TGI [5]: 1780 nM
- GI50 [6]: 465 nM
- TGI [6]: 1800 nM
- GI50 [7]: 338 nM
- TGI [7]: 7290 nM
- GI50 [8]: 995 nM
- TGI [8]: 2660 nM
- GI50 [9]: 3380 nM
- TGI [9]: 11700 nM
- GI50 [10]: 2650 nM
- TGI [10]: 8400 nM
- GI50 [11]: 1710 nM
- TGI [11]: 3150 nM
- GI50 [12]: 466 nM
- TGI [12]: 5290 nM
- GI50 [13]: 1100 nM
- TGI [13]: 2920 nM
- GI50 [14]: 415 nM
- TGI [14]: > 100000 nM
- GI50 [15]: 3530 nM
- TGI [15]: 13100 nM
- GI50 [16]: 475 nM
- TGI [16]: 1460 nM
- GI50 [17]: 1770 nM
- TGI [17]: 5550 nM
- GI50 [18]: 478 nM
- TGI [18]: 6440 nM
- GI50 [19]: 1810 nM
- TGI [19]: 3860 nM
- GI50 [20]: 297 nM
- TGI [20]: > 100000 nM
- GI50 [21]: 1460 nM
- TGI [21]: 3320 nM
- GI50 [22]: 455 nM
- TGI [22]: 1680 nM
- GI50 [23]: 739 nM
- TGI [23]: 2770 nM
- GI50 [24]: 641 nM
- TGI [24]: 1940 nM
- GI50 [25]: 616 nM
- TGI [25]: 2530 nM
- GI50 [26]: 1470 nM
- TGI [26]: 2930 nM
- GI50 [27]: 1930 nM
- TGI [27]: 4180 nM
- GI50 [28]: 600 nM
- TGI [28]: 1670 nM
- GI50 [29]: 2010 nM
- TGI [29]: 5670 nM
- GI50 [30]: 1140 nM
- TGI [30]: 2780 nM
- GI50 [31]: 2730 nM
- TGI [31]: 8490 nM
- GI50 [32]: 363 nM
- TGI [32]: 1590 nM
- GI50 [33]: 2270 nM
- TGI [33]: 6780 nM
- GI50 [34]: 1230 nM
- TGI [34]: 2530 nM
- GI50 [35]: 1450 nM
- TGI [35]: 3390 nM
- GI50 [36]: 1670 nM
- TGI [36]: 3380 nM
- GI50 [37]: 2270 nM
- TGI [37]: 9400 nM
- GI50 [38]: 325 nM
- TGI [38]: 1940 nM
- GI50 [39]: 434 nM
- TGI [39]: > 100000 nM
- GI50 [40]: 549 nM
- TGI [40]: 2080 nM
- GI50 [41]: 2370 nM
- TGI [41]: 7270 nM
- GI50 [42]: 2130 nM
- TGI [42]: 5240 nM
- GI50 [43]: 539 nM
- TGI [43]: 1710 nM
- GI50 [44]: 2140 nM
- TGI [44]: 4360 nM
- GI50 [45]: 1290 nM
- TGI [45]: 2760 nM
- GI50 [46]: 1580 nM
- TGI [46]: 2930 nM
- GI50 [47]: 2880 nM
- TGI [47]: 8160 nM
- GI50 [48]: 1290 nM
- TGI [48]: 3330 nM
- GI50 [49]: 3440 nM
- TGI [49]: 11900 nM
- GI50 [50]: 1310 nM
- TGI [50]: 4390 nM
- GI50 [51]: 546 nM
- TGI [51]: > 34700 nM
- GI50 [52]: 354 nM
- TGI [52]: 1540 nM
- GI50 [53]: 496 nM
- TGI [53]: 2330 nM
- GI50 [54]: 2380 nM
- TGI [54]: 8700 nM
- GI50 [55]: 933 nM
- TGI [55]: 2710 nM
- GI50 [56]: 1830 nM
- TGI [56]: 4100 nM
- GI50 [57]: 1390 nM
- TGI [57]: 2810 nM
- GI50 [58]: 682 nM
- TGI [58]: 2000 nM
